The term IC50 denotes the concentration that inhibits the measured activity by half.

In one experiment the target is T1, JAK2 (Homo sapiens, UniProt O60674).
T1 construct: recombinant purified GST-tagged catalytic domain for each enzyme; purchased Invitrogen M4290
The experiment in a line: Jak Biochemical HTRF Assay (JAK2). The note with it: recombinant purified GST-tagged catalytic domain, [ATP] 8.5 μM, values given as range classes. As for the experimental part:
(§1) Jak Biochemical HTRF Assay Protocol
(§2) The ability of compounds to inhibit the activity of JAK1, JAK2, JAK3, and Tyk2 was measured using a recombinant purified GST-tagged catalytic domain for each enzyme (Invitrogen JAK1 #M4290, JAK2 #M4290, JAK3 #M4290, Tyk2 #M4290) in an HTRF format biochemical assay. The reactions employed a common peptide substrate, LCB-EQEDEPEGDYFEWLW-NH2 (in-house). The basic assay protocol is as follows: First, 250 nL of diluted compounds in DMSO were dispensed into the wells of a dry 384-well Black plate (Greiner #781076) using a Labcyte Echo 555 acoustic dispenser. Subsequent reagent additions employed an Agilent Bravo. Next, 18 μL of 1.11× enzyme and 1.11× substrate in 1× assay buffer (Invitrogen kinase buffer #PV3189, 2 mM DTT, 0.05% BSA) were added to the wells and shaken and then preincubated for 30 minutes at room temperature to allow compound binding to equilibrate. After equilibration, 2 μL of 10×ATP in 1× assay buffer was added to initiate the kinase reaction and the plates were shaken and then incubated at room temperature for 120 minutes. At the end of the incubation, 20 μL of 2× stop buffer (streptavidin-Dylight 650 (Thermo #84547B/100 mL), Eu-tagged pY20 antibody (Perkin Elmer #AD0067), EDTA, HEPES, and Triton) was added to quench the reaction. Plates were shaken and centrifuged and then incubated 60 minutes at room temperature and then read on a Perkin Elmer Envision (λex=337 nm, λem=665 and 615 nm, TRF delay time=20 μs). HTRF signal=10,000*665 nm reading/615 nm reading. After normalization to untreated controls, the percent inhibition of the HTRF signal at each compound concentration was calculated. The plot of percent inhibition versus the log of compound concentration was fit with a 4-parameter dose response equation to calculate IC50 values.
(§3) Final reaction conditions were:
(§4) Examples of the instant invention were evaluated in JAK2 and JAK3 in vitro binding assays. Table 13 tabulates the biological data disclosed for the instant invention as a range of JAK2 and JAK3 IC50 values (A: IC50≦10 nM; B: 10 nM>IC50≦500 nM C: IC50>500 nM).
A general note: Time-resolved FRET reads energy transfer from a long-lived donor to a nearby acceptor.

The next experiment deals with T2, JAK3 (Homo sapiens, UniProt P52333).
T2 construct: recombinant purified GST-tagged catalytic domain for each enzyme; purchased Invitrogen M4290
The experiment in a line: Jak Biochemical HTRF Assay (JAK3). The following applies: recombinant purified GST-tagged catalytic domain, [ATP] 2.9 μM, values given as range classes. As for the experimental part: as §1, §2, §3, §4

A value given as a limit tells only on which side of the number the result lay.

T2 sequence (P52333 822-1111 limits assumed): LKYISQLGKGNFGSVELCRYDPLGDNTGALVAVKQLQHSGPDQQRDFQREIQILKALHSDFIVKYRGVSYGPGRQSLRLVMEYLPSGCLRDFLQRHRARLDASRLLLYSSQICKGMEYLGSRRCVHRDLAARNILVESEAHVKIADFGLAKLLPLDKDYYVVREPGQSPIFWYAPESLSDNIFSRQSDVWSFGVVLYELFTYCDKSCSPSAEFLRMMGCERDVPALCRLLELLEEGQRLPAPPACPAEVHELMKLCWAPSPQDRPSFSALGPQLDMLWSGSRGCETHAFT
T1 sequence (O60674 849-1124 limits assumed): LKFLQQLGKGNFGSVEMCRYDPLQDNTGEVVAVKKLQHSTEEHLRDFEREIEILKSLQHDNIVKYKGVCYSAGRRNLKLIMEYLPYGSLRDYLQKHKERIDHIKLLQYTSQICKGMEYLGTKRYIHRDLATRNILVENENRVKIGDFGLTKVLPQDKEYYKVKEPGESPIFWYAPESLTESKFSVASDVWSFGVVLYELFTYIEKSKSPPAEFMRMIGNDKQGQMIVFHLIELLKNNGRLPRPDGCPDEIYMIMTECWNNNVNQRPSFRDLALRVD

`CC(C)C(Nc1cncc(-c2c[nH]c3ncc(NS(C)(=O)=O)cc23)c1)C(=O)NCC(F)(F)F` (racemic) [Example 5-3, N^2-(5-{5-[(methylsulfonyl)amino]-1H-pyrrolo[2,3-b]pyridin-3-yl}pyridin-3-yl)-N-(2,2,2-trifluoroethyl)valinamide]: the IC50 on JAK2 and on JAK3 was 10 to 500 nM throughout.

For the compound `CC(C)C(Nc1cncc(-c2c[nH]c3ncc(-c4cnn(C)c4)cc23)c1)C(=O)NCC(F)(F)F` (racemic) [Example 8-1, N^2-{5-[5-(1-methyl-1H-pyrazol-4-yl)-1H-pyrrolo[2,3-b]pyridin-3-yl]pyridin-3-yl}-N-(2,2,2-trifluoroethyl)valinamide], the IC50 on JAK2 and on JAK3 was at most 10 nM throughout.

`CC(C)[C@@H](Nc1cncc(-c2c[nH]c3ncc(Cl)cc23)c1)C(=O)NCC(F)(F)F` (single isomer, unassigned) [Example 1-1]: the IC50 on JAK2 was 10 to 500 nM; at JAK3, at most 10 nM.

For `CC(C)C(Nc1cncc(-c2c[nH]c3ncc(F)cc23)c1)C(=O)NCC(F)(F)F` (stereo not shown) [Example 1-2, 2-{[5-(5-fluoro-1H-pyrrolo[2,3-b]pyridin-3-yl)pyridin-3-yl]amino}-3-methyl-N-(2,2,2-trifluoroethyl)butanamide], the IC50 at JAK2 is 10 to 500 nM; at JAK3, at most 10 nM.

With `CC(C)[C@@H](Nc1cnnc(-c2c[nH]c3ncc(Cl)cc23)n1)C(=O)NCC(F)(F)F` [Example 1-3, N~2~-[3-(5-chloro-1H-pyrrolo[2,3-b]pyridin-3-yl)-1,2,4-triazin-5-yl]-N-(2,2,2-trifluoroethyl)-D-valinamide], the IC50 on JAK2 is 10 to 500 nM; on JAK3, at most 10 nM.

With `CC1c2ncc(C(F)(F)F)n2CCN1c1cnnc(-c2c[nH]c3ncc(Cl)cc23)n1` (stereo not shown) [Example 1-4, 7-[3-(5-chloro-1H-pyrrolo[2,3-b]pyridin-3-yl)-1,2,4-triazin-5-yl]-8-methyl-3-(trifluoromethyl)-5,6,7,8-tetrahydroimidazo[1,2-a]pyrazine], the IC50 at JAK2 is 10 to 500 nM; on JAK3, at most 10 nM.

As to `Clc1cnc2[nH]cc(-c3nncc(N4CCCC4c4nccs4)n3)c2c1` (stereo not shown) [Example 1-5, 5-chloro-3-{5-[2-(1,3-thiazol-2-yl)pyrrolidin-1-yl]-1,2,4-triazin-3-yl}-1H-pyrrolo[2,3-b]pyridine], the IC50 at JAK2 and on JAK3 was 10 to 500 nM each time.

On to `CC(C)(Nc1cnnc(-c2c[nH]c3ncc(F)cc23)n1)C(=O)NCC(F)(F)F` [Example 1-6, N~2~-[3-(5-fluoro-1H-pyrrolo[2,3-b]pyridin-3-yl)-1,2,4-triazin-5-yl]-2-methyl-N-(2,2,2-trifluoroethyl)alaninamide], for which the IC50 on JAK2 is 10 to 500 nM; on JAK3, at most 10 nM.

As for `CC(C)(Nc1cnnc(-c2c[nH]c3ncc(C#N)cc23)n1)C(=O)NCC(F)(F)F` [Example 1-7, N~2~-[3-(5-cyano-1H-pyrrolo[2,3-b]pyridin-3-yl)-1,2,4-triazin-5-yl]-2-methyl-N-(2,2,2-trifluoroethyl)alaninamide], the IC50 on JAK2 is 10 to 500 nM; at JAK3, at most 10 nM.

Consider `C[C@@H](Nc1cnnc(-c2c[nH]c3ncc(F)cc23)n1)C(=O)NCC(F)(F)F` [Example 1-8, N~2~-[3-(5-fluoro-1H-pyrrolo[2,3-b]pyridin-3-yl)-1,2,4-triazin-5-yl]-N-(2,2,2-trifluoroethyl)-D-alaninamide], for which the IC50 at JAK2 and at JAK3 was 10 to 500 nM in each case.

On to `C[C@@H](Nc1cnnc(-c2c[nH]c3ncc(C#N)cc23)n1)C(=O)NCC(F)(F)F` [Example 1-9, N~2~-[3-(5-cyano-1H-pyrrolo[2,3-b]pyridin-3-yl)-1,2,4-triazin-5-yl]-N-(2,2,2-trifluoroethyl)-D-alaninamide], for which the values for the IC50 at JAK2 and at JAK3 were 10 to 500 nM and at most 10 nM, respectively.

For the origin of these results see patent publication US9096598B2 (Merck Sharp & Dohme Corp., priority 2011, dated 2015).
